Results: patent US10898481B2 (priority 2018, dated 2021)

How the values were obtained:
[1] = target: hADORA1/CHO (hA1 expressing) cells (Homo sapiens (Human), UniProt P30542); experiment: cell-based; details: FLIPR inhibition, 10 μM adenosine, read-out: cAMP & FLIPR IC50 (nM) hA1
hA2a/CHO = hA2a/CHO (Homo sapiens (Human), UniProt P29274); experiment: cAMP inhibition assay in hA2a/CHO cells, 10 μM adenosine; type: cell-based; details: read-out: cAMP & FLIPR IC50 (nM) hA2a;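 also: compounds added to cells 30 min ahead of adenosine, then a further 30 min at 37 °C with adenosine before cAMP detection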
hA2a/CHO, sequence (P29274 whole entry): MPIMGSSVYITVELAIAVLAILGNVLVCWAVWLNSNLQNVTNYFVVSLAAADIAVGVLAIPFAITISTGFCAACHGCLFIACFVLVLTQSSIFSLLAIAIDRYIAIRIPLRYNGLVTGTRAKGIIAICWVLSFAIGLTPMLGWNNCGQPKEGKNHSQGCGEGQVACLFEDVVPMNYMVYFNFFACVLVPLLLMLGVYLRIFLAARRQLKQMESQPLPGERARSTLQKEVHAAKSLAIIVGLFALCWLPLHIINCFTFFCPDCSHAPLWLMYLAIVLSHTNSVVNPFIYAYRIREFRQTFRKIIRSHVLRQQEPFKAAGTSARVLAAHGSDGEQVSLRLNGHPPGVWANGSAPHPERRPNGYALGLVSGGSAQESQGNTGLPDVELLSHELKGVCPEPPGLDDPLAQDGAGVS
Experimental: (§1) hA2a/CHO, hA2b/CHO, hA3/CHO and mA2a/CHO (Genscript) were plated at 5×10^3 cells/well into 384-well polystyrene plates at the day of experiment. Compounds were pre-incubated with cells for 30 min at 37° C., 5% CO2. Then 10 μM adenosine was added to the cells and incubated for 30 min at 37° C., 5% CO2. Detection reagent (CISBIO) was added and the plates were incubated for 60 min at room temperature. The signal was captured by Envision.

hA2b/CHO = hA2b/CHO (Homo sapiens (Human), UniProt P29275); experiment: cAMP inhibition assay in hA2b/CHO cells, 10 μM adenosine; type: cell-based; details: read-out: cAMP & FLIPR IC50 (nM) hA2b;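 also: cells exposed to compound 30 min at 37 °C, then stimulated with adenosine a further 30 min, cAMP read after 60 min at room temperature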
hA2b/CHO, sequence (P29275 whole entry): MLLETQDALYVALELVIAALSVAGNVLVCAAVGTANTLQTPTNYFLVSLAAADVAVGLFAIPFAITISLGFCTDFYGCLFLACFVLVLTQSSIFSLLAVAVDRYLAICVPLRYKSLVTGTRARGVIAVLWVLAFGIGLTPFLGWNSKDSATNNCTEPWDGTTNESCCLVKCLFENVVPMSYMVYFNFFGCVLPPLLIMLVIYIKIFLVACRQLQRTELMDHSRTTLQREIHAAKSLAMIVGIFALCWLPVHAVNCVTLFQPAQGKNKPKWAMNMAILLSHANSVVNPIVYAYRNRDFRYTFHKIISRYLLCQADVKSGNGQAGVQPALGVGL
Experimental: as §1

mA2a/CHO = mA2a/CHO (Mus musculus (Mouse), UniProt Q60613); experiment: cAMP inhibition assay in mA2a/CHO cells, 10 μM adenosine; type: cell-based; details: read-out: cAMP & FLIPR IC50 (nM) mA2a;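 also: compounds preincubated 30 min at 37 °C before the adenosine challenge, then 30 min further stimulation, readout after 60 min detection reagent incubation at room temperature in 384-well plates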
mA2a/CHO, sequence (Q60613 whole entry): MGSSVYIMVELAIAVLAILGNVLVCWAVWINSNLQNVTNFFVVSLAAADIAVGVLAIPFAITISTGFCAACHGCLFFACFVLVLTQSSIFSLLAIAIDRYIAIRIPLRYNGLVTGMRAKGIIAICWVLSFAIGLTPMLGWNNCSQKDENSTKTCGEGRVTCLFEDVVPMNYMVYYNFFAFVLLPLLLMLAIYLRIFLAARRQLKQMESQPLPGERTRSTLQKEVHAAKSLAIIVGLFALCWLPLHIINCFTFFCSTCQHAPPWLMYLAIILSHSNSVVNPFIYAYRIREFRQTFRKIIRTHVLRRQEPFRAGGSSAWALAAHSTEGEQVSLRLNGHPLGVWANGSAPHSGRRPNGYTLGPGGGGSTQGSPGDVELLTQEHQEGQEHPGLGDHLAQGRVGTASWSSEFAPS
Experimental: as §1

hADORA1/CHO (hA1 expressing) cells, sequence (P30542 whole entry): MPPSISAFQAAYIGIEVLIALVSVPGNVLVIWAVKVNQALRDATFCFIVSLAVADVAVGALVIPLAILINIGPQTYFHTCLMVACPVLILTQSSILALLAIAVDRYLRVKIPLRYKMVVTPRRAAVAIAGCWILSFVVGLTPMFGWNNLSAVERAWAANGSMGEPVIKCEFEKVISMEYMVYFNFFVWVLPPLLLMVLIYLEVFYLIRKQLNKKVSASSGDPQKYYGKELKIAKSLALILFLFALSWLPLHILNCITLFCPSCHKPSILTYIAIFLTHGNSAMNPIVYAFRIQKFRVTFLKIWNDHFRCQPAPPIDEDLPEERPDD

Row | SMILES | IC50 [1] | IC50 (hA2a/CHO) | IC50 (hA2b/CHO) | IC50 (mA2a/CHO)
1 | CN1CCCC1CNC(=O)c1nc(-c2ccc3ncc(C(F)(F)F)n3c2)c(-c2ncco2)nc1N (single isomer, unassigned) [Cmpd. 202, 3-amino-N-[[1-methylpyrrolidin-2-yl]methyl]-5-(1,3-oxazol-2-yl)-6-[3-(trifluoromethyl)imidazo[1,2-a]pyridin-6-yl]pyrazine-2-carboxamide] | 6920 nM | 17 nM | 1130 nM | 105 nM
2 | CN1CCCC1CNC(=O)c1nc(-c2ccc3ncc(C(F)(F)F)n3c2)c(-c2ncco2)nc1N (single isomer, unassigned) [Cmpd. 206] | 2490 nM | 5.3 nM | 707 nM | 50 nM
3 | CC(O)Cn1cc(-c2nc(C(=O)NCc3c(F)cccc3F)c(N)nc2-c2ncco2)ccc1=O (single isomer, unassigned) [Example 107, 3-amino-N-(2,6-difluorobenzyl)-6-(1-(2-hydroxypropyl)-6-oxo-1,6-dihydropyridin-3-yl)-5-(oxazol-2-yl)pyrazine-2-carboxamide] | 341 nM | 76 nM | 3490 nM | 166 nM
4 | CC(O)Cn1cc(-c2nc(C(=O)NCc3c(F)cccc3F)c(N)nc2-c2ncco2)ccc1=O (single isomer, unassigned) [Example 108, 3-amino-N-(2,6-difluorobenzyl)-6-(1-(2-hydroxypropyl)-6-oxo-1,6-dihydropyridin-3-yl)-5-(oxazol-2-yl)pyrazine-2-carboxamide] | 55 nM | 0.6 nM | 132 nM | 3.6 nM
5 | Cc1cnc2ccc(-c3nc(C(=O)NCC4CCCCN4C)c(N)nc3-c3ncco3)cn12 (single isomer, unassigned; isomer 1) [Example 124, 3-amino-6-(3-methylimidazo[1,2-a]pyridin-6-yl)-N-((1-methylpiperidin-2-yl)methyl)-5-(oxazol-2-yl)pyrazine-2-carboxamide (isomer 1)] | 10000 nM | 2260 nM | ≥ 10000 nM | ≥ 10000 nM
6 | Cc1cnc2ccc(-c3nc(C(=O)N[C@H]4CCCOC4)c(N)nc3-c3ncco3)cn12 (single isomer, unassigned; isomer 1) [Example 163, 3-amino-6-(3-methylimidazo[1,2-a]pyridin-6-yl)-5-(oxazol-2-yl)-N-(tetrahydro-2H-pyran-3-yl)pyrazine-2-carboxamide (isomer 1)] | > 10000 nM | 3.28 nM | 387 nM | 22 nM
7 | Cc1cnc2ccc(-c3nc(C(=O)NCC4CCCCO4)c(N)nc3-c3ncco3)cn12 (single isomer, unassigned; isomer 1) [Example 165, 3-amino-6-(3-methylimidazo[1,2-a]pyridin-6-yl)-5-(oxazol-2-yl)-N-((tetrahydro-2H-pyran-2-yl)methyl) pyrazine-2-carboxamide (isomer 1)] | 207 nM | 0.24 nM | 73 nM | 1.42 nM
8 | Cc1cnc2ccc(-c3nc(C(=O)NCC4CC(=O)N(C)C4)c(N)nc3-c3ncco3)cn12 (single isomer, unassigned; isomer 1) [Example 213, 3-amino-N-((1-methyl-5-oxopyrrolidin-3-yl)methyl)-6-(3-methylimidazo[1,2-ajpyridin-6-yl)-5-(oxazol-2-yl)pyrazine-2-carboxamide (isomer 1)] | 505 nM | 22 nM | 2530 nM | 54 nM
9 | Cc1cnc2ccc(-c3nc(C(=O)NCC4CN(C)CCO4)c(N)nc3-c3ccc(F)cc3)cn12 (single isomer, unassigned; isomer 1) [Example 246, 3-amino-5-(4-fluorophenyl)-6-(3-methylimidazo[1,2-a]pyridin-6-yl)-N-((4-methylmorpholin-2-yl)methyl) pyrazine-2-carboxamide (isomer 1)] | 44 nM | 17 nM | 1100 nM | 67 nM
10 | COC(C)CNC(=O)c1nc(-c2ccc3ncc(C)n3c2)c(-c2ncco2)nc1N (single isomer, unassigned; isomer 1) [Example 248, 3-amino-N-(2-methoxypropyl)-6-(3-methylimidazo[1,2-a]pyridin-6-yl)-5-(oxazol-2-yl)pyrazine-2-carboxamide (isomer 1)] | 121 nM | 2.9 nM | 140 nM | 18 nM
11 | Cc1cnc2ccc(-c3nc(C(=O)NCC4(C)CCOC4)c(N)nc3-c3ncco3)cn12 (single isomer, unassigned; isomer 1) [Example 251, 3-amino-6-(3-methylimidazo[1,2-a]pyridin-6-yl)-N-((3-methyltetrahydrofuran-3-yl)methyl)-5-(oxazol-2-yl)pyrazine-2-carboxamide (isomer 1)] | 425 nM | 4.7 nM | 657 nM | 34 nM
12 | Cc1cnc2ccc(-c3nc(C(=O)N[C@@H]4CCCOC4)c(N)nc3-c3ncco3)cn12 (single isomer, unassigned; isomer 2) [Example 164, 3-amino-6-(3-methylimidazo[1,2-a]pyridin-6-yl)-5-(oxazol-2-yl)-N-(tetrahydro-2H-pyran-3-yl)pyrazine-2-carboxamide (isomer 2)] | > 10000 nM | 0.94 nM | 479 nM | 12.7 nM
13 | Cc1cnc2ccc(-c3nc(C(=O)NCC4CCCCO4)c(N)nc3-c3ncco3)cn12 (single isomer, unassigned; isomer 2) [Example 166, 3-amino-6-(3-methylimidazo[1,2-a]pyridin-6-yl)-5-(oxazol-2-yl)-N-((tetrahydro-2H-pyran-2-yl)methyl) pyrazine-2-carboxamide (isomer 2)] | 358 nM | 0.24 nM | 47 nM | 1.48 nM
14 | Cc1cnc2ccc(-c3nc(C(=O)NCC4CC(=O)N(C)C4)c(N)nc3-c3ncco3)cn12 (single isomer, unassigned; isomer 2) [Example 210, 3-amino-N-((1-methyl-5-oxopyrrolidin-3-yl)methyl)-6-(3-methylimidazo[1,2-a]pyridin-6-yl)-5-(oxazol-2-yl)pyrazine-2-carboxamide (isomer 2)] | 14700 nM | 11 nM | 972 nM | 88 nM
15 | COC(C)CNC(=O)c1nc(-c2ccc3ncc(C)n3c2)c(-c2ncco2)nc1N (single isomer, unassigned; isomer 2) [Example 241, 3-amino-N-(2-methoxypropyl)-6-(3-methylimidazo[1,2-a]pyridin-6-yl)-5-(oxazol-2-yl)pyrazine-2-carboxamide (isomer 2)] | 272 nM | 4 nM | 205 nM | 27 nM
16 | Cc1cnc2ccc(-c3nc(C(=O)NCC4(C)CCCN4C)c(N)nc3-c3ncco3)cn12 (single isomer, unassigned; isomer 2) [Example 247, 3-amino-N-((1,2-dimethylpyrrolidin-2-yl)methyl)-6-(3-methylimidazo[1,2-a]pyridin-6-yl)-5-(oxazol-2-yl)pyrazine-2-carboxamide (isomer 2)] | 1490 nM | 36 nM | 2000 nM | 345 nM
